Values quoted from earlier work, collected in article PMC9851200, “Multiparameter phenotypic screening for endogenous TFEB and TFE3 translocation identifies novel chemical series modulating lysosome function” (Autophagy, 2022).

What was measured:
Parameters in all cases: method as in original PKIS2 published data
[1] = biological target: kinases (KINOMEscan panel) (Homo sapiens, UniProt O95819); conditions: MAP4K4; Published KINOMEscan; ref original PKIS2 published data; cited from earlier work
[2] = biological target: T1, kinases (KINOMEscan panel) (Homo sapiens, UniProt P42680); conditions: kinase TEC; Published KINOMEscan; ref original PKIS2 published data; cited from earlier work
T1 sequence (P42680 1-631): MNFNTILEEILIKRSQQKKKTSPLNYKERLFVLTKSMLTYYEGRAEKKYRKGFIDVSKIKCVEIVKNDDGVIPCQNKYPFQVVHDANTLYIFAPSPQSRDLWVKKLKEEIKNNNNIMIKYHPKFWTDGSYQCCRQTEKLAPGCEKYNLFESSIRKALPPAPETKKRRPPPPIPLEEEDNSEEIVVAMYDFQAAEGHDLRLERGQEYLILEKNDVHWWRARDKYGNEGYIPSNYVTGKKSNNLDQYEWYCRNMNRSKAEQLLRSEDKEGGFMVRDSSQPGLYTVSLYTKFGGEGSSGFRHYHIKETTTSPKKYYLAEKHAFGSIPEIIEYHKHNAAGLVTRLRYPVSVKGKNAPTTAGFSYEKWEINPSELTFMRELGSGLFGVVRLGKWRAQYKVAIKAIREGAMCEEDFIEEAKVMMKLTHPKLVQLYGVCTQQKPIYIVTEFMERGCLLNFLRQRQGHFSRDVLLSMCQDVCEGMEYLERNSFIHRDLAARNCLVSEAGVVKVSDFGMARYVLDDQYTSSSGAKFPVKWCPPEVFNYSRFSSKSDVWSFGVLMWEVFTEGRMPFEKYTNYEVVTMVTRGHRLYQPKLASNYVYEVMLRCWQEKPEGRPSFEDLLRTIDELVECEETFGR

[3] = biological target: T2, kinases (KINOMEscan panel) (Homo sapiens, UniProt P43403); conditions: Published KINOMEscan; ref original PKIS2 published data; cited from earlier work
T2 sequence (P43403 1-619): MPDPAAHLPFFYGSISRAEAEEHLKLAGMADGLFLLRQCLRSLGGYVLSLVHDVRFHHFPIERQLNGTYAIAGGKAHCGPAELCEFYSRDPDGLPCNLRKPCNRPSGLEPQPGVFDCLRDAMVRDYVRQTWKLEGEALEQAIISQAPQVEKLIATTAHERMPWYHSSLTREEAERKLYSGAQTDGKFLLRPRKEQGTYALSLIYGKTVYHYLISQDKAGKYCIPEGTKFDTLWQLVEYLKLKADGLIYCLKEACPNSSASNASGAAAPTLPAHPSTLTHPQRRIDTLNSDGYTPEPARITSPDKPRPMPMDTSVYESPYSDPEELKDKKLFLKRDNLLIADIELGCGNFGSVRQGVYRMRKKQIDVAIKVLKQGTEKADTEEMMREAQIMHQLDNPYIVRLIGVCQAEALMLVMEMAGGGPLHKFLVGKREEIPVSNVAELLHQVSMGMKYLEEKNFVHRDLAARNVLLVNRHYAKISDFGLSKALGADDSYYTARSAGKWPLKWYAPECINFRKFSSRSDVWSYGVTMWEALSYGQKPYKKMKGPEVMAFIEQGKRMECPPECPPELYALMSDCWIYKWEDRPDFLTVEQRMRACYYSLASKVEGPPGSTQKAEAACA

[4] = biological target: kinases (KINOMEscan panel) (Homo sapiens, UniProt Q14680); conditions: kinase MELK; Published KINOMEscan; ref original PKIS2 published data; cited from earlier work
[5] = biological target: T3, kinases (KINOMEscan panel) (Homo sapiens, UniProt Q9NRM7); conditions: Published KINOMEscan; ref original PKIS2 published data; cited from earlier work
T3 sequence (Q9NRM7 1-1088): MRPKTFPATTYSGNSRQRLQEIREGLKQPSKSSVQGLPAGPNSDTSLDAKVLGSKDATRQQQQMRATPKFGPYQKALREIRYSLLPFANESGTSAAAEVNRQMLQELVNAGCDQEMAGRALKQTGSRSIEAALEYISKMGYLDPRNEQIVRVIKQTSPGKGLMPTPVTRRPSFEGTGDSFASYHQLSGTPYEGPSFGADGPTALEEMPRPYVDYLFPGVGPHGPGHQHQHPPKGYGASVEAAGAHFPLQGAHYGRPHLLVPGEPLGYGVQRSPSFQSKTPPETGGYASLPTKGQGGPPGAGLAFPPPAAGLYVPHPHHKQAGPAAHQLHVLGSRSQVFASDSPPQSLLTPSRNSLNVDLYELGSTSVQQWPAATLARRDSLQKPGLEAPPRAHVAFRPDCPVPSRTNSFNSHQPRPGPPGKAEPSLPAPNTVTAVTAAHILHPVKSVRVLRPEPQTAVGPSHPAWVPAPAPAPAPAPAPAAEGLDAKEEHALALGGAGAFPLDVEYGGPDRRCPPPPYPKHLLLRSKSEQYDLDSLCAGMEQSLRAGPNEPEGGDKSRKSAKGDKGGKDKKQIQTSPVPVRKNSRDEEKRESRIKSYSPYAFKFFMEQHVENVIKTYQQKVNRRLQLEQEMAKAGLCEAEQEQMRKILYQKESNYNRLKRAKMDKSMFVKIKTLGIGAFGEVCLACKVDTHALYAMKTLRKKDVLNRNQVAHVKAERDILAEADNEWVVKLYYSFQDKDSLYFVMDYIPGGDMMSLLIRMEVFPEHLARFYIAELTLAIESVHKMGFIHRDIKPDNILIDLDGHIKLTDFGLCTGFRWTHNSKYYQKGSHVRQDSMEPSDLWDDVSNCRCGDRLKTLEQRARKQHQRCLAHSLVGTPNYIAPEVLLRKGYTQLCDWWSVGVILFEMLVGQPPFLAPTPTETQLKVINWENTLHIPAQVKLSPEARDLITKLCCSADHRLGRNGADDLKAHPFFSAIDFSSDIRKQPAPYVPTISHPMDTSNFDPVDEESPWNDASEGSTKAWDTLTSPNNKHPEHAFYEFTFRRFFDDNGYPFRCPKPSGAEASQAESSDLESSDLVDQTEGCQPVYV

[6] = biological target: kinases (KINOMEscan panel) (Homo sapiens, UniProt Q9Y243); conditions: kinase AKT3; Published KINOMEscan; ref original PKIS2 published data; cited from earlier work
kinases (KINOMEscan panel) (Homo sapiens, UniProt Q9Y243), sequence (Q9Y243 whole entry): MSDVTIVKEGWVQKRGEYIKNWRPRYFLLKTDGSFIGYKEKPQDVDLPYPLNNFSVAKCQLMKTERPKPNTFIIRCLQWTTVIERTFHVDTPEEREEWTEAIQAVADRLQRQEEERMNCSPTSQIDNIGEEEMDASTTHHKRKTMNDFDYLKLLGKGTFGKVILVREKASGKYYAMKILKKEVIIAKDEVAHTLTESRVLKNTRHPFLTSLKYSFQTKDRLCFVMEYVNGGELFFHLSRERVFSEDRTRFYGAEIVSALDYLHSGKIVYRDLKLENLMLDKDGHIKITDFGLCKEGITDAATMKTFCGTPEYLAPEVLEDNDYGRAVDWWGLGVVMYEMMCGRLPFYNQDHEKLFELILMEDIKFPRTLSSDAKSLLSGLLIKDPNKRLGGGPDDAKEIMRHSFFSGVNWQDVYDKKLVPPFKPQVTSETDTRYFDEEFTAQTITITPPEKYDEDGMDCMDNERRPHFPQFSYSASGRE

kinases (KINOMEscan panel) (Homo sapiens, UniProt Q14680), sequence (Q14680 whole entry): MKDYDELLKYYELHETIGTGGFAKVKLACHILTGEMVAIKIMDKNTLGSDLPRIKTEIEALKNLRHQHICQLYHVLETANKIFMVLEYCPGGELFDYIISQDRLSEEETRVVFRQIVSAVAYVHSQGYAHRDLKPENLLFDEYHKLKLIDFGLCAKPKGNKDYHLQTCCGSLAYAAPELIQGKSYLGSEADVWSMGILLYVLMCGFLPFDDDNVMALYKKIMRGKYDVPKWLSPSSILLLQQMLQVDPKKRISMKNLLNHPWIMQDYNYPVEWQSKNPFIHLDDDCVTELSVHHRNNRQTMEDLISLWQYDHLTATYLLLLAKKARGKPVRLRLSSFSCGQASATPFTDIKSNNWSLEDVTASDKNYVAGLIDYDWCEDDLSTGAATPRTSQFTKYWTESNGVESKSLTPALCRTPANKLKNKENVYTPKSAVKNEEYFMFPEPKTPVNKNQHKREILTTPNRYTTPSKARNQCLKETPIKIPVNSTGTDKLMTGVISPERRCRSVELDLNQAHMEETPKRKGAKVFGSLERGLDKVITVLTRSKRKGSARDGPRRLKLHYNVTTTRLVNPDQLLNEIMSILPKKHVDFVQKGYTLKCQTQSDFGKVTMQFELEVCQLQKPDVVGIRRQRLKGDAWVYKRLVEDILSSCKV
kinases (KINOMEscan panel) (Homo sapiens, UniProt O95819), sequence (O95819 whole entry): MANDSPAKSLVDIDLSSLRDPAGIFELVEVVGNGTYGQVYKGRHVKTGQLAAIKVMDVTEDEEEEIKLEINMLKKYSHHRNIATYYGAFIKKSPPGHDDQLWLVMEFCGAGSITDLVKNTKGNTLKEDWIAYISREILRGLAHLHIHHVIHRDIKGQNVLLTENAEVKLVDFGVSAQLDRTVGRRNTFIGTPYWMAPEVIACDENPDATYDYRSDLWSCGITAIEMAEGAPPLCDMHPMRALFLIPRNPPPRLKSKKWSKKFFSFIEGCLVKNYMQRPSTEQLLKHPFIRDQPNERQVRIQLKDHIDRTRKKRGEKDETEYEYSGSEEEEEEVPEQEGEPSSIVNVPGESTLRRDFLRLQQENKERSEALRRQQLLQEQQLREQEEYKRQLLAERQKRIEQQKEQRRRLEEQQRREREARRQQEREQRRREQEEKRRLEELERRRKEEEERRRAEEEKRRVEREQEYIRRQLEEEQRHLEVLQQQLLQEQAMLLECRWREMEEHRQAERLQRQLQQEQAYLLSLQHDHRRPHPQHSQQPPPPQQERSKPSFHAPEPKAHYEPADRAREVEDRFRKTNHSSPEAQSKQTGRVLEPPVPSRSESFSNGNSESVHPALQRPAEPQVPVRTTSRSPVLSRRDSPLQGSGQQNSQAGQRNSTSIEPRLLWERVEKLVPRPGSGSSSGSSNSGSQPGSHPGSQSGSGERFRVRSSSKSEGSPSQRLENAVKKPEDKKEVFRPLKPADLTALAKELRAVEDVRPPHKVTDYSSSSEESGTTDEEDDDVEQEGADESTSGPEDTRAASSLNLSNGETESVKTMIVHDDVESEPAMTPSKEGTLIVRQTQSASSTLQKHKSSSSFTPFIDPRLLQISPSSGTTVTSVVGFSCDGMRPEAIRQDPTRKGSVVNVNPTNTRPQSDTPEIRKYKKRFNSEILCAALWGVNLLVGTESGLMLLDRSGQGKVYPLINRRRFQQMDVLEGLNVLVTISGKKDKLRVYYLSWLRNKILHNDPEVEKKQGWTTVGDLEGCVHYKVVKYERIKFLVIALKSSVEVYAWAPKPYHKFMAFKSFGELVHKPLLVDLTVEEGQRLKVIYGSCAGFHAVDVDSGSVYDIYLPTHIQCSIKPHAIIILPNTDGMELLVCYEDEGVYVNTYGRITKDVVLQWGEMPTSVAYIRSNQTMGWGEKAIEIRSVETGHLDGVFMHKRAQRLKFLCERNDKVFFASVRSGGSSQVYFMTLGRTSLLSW

Cc1cccc(-c2nc(Nc3ccncc3)c3ccccc3n2)n1 [NK215]
KINOMEscan MAP4K4 [1]: 0
KINOMEscan TEC [2]: 10
KINOMEscan ZAP70 [3]: 0
KINOMEscan MELK [4]: 11
KINOMEscan LATS2 [5]: 0
KINOMEscan AKT3 [6]: 0
